From ChEMBL document CHEMBL4813986, “Multicomponent synthesis and anti-proliferative screening of biaryl triazole-containing cyclophanes” (Bioorg Med Chem Lett, 2021)
Values after ≈ are worked out from the molar mass of the structure shown. One block for each molecule: values may come before it. Active and inactive are the calls of the source. The rule behind the calls is not given here.

Tests used:
[1] = Cytotoxicity against African green monkey COS7 cells assessed as inhibition of cell growth at 50 uM relative to control; assay type: cell-based; details: chlorocebus aethiops, COS-7 cells
[2] = test system: PC-3; experiment: Antiproliferative activity against human PC-3 cells assessed as inhibition of cell growth; assay type: functional, cell-based
[3] = test system: MCF7; experiment: Antiproliferative activity against human MCF7 cells assessed as inhibition of cell growth at 50 uM relative to control; assay type: functional
[4] = test system: PC-3; experiment: Antiproliferative activity against human PC-3 cells assessed as inhibition of cell growth at 50 uM relative to control; assay type: functional
[5] = test system: DU-145; experiment: Antiproliferative activity against human DU-145 cells assessed as inhibition of cell growth at 50 uM relative to control; assay type: functional
[6] = test system: Bel-7402; experiment: Cytotoxicity against human Bel-7402 cells assessed as reduction in cell viability measured after 5 days by MTT assay; assay type: functional, cell-based
[7] = Aqueous solubility of the compound; assay type: physicochemical; details: buffer

IC50 [2]: 4.6 µM
SMILES: CC(C)c1ccc(N2C(=O)Cc3ccc(cc3)OCCn3cc(nn3)COc3ccc(cc3)-c3cccc(c3)C2C(=O)NC2CCCCC2)cc1 (stereo not given)
inhibition at 50 µM [1]: 37.5%
inhibition at 50 µM [3]: 81.8%
inhibition at 50 µM [4]: 90.2%
inhibition at 50 µM [5]: 93.8%

SMILES: O=C(NC1CCCCC1)C1c2cccc(c2)-c2ccc(cc2)OCc2cn(nn2)CCCCCOc2ccc(cc2)CC(=O)N1c1ccc(C(F)(F)F)cc1 (stereo not given)
inhibition at 50 µM [1]: 45.4%
inhibition at 50 µM [3]: 53.3%
inhibition at 50 µM [4]: 46%
inhibition at 50 µM [5]: 48.8%

SMILES: O=C(NC1CCCCC1)C1c2cccc(c2)-c2ccc(cc2)OCc2cn(nn2)CCOc2ccc(cc2)CC(=O)N1c1ccc(F)cc1 (stereo not given)
inhibition at 50 µM [1]: 43.2%
inhibition at 50 µM [3]: 43.2%
inhibition at 50 µM [4]: 50.3%
inhibition at 50 µM [5]: 28.4%

IC50 [2]: 13.8 µM
SMILES: CC(C)c1ccc(N2C(=O)Cc3ccc(cc3)OCCCn3cc(nn3)COc3ccc(cc3)-c3cccc(c3)C2C(=O)NC2CCCCC2)cc1 (stereo not given)
inhibition at 50 µM [1]: 48%
inhibition at 50 µM [3]: 58.2%
inhibition at 50 µM [4]: 60.8%
inhibition at 50 µM [5]: 41.9%

SMILES: CC1=C[C@H]2O[C@@H]3C[C@H]4OC(=O)/C=C\C=C\[C@@H]5O[C@@H](O[C@H]5C)[C@H](O)/C(C)=C/C(=O)OC[C@@]2(CC1)[C@]4(C)[C@]31CO1
IC50 [6]: 0.35 µg/mL (≈ 0.662 µM)

SMILES: O=C(NC1CCCCC1)C1c2cccc(c2)-c2ccc(cc2)OCc2cn(nn2)CCOc2ccc(cc2)CC(=O)N1Cc1ccccc1 (stereo not given)
inhibition at 50 µM [1]: 9.9%
inhibition at 50 µM [3]: 15.2%
inhibition at 50 µM [4]: 11.6%
inhibition at 50 µM [5]: 11%

SMILES: CC(C)(C)NC(=O)C1c2cccc(c2)-c2ccc(cc2)OCc2cn(nn2)CCOc2ccc(cc2)CC(=O)N1Cc1ccccc1 (stereo not given)
inhibition at 50 µM [1]: 37.8%
inhibition at 50 µM [3]: 44.6%
inhibition at 50 µM [4]: 48.3%
inhibition at 50 µM [5]: 25.5%

SMILES: O=C(NC1CCCCC1)C1c2cccc(c2)-c2ccc(cc2)OCc2cn(nn2)CCCCOc2ccc(cc2)CC(=O)N1c1ccc(C(F)(F)F)cc1 (stereo not given)
inhibition at 50 µM [1]: 38.1%
inhibition at 50 µM [3]: 57.1%
inhibition at 50 µM [4]: 48.5%
inhibition at 50 µM [5]: 39%

IC50 [2]: 9.7 µM
SMILES: CC(C)c1ccc(N2C(=O)Cc3ccc(cc3)OCCCn3cc(nn3)COc3cccc(c3)C2C(=O)NC2CCCCC2)cc1 (stereo not given)

solubility [7]: Insoluble
SMILES: CCCCCCCCCCCCNC(=O)C1c2cccc(c2)-c2ccc(cc2)OCc2cn(nn2)CCOc2ccc(cc2)CC(=O)N1c1ccc(C(C)C)cc1 (stereo not given)
inhibition at 50 µM [1]: 25.6%
inhibition at 50 µM [3]: 39.2%
inhibition at 50 µM [4]: 25.4%
inhibition at 50 µM [5]: 51%

solubility [7]: Insoluble
SMILES: CCCCCCCCCCCCNC(=O)C1c2cccc(c2)-c2ccc(cc2)OCc2cn(nn2)CCCOc2ccc(cc2)CC(=O)N1c1ccc(C(C)C)cc1 (stereo not given)
inhibition at 50 µM [1]: 9.9%
inhibition at 50 µM [3]: 31.8%
inhibition at 50 µM [4]: 30.1%
inhibition at 50 µM [5]: 21.2%

SMILES: O=C(NC1CCCCC1)C1c2cccc(c2)-c2ccc(cc2)OCc2cn(nn2)CCCOc2ccc(cc2)CC(=O)N1c1ccc(C(F)(F)F)cc1 (stereo not given)
inhibition at 50 µM [1]: 30.9%
inhibition at 50 µM [3]: 60.9%
inhibition at 50 µM [4]: 35.5%
inhibition at 50 µM [5]: 20.1%

SMILES: CCCCCCCCCCCCNC(=O)C1c2cccc(c2)-c2ccc(cc2)OCc2cn(nn2)CCCCCOc2ccc(cc2)CC(=O)N1c1ccc(C(F)(F)F)cc1 (stereo not given)
inhibition at 50 µM [1]: 10.2%
inhibition at 50 µM [3]: 24.9%
inhibition at 50 µM [4]: 22%
inhibition [5]: inactive

SMILES: CCCCCCCCCCCCNC(=O)C1c2cccc(c2)-c2ccc(cc2)OCc2cn(nn2)CCOc2ccc(cc2)CC(=O)N1Cc1ccccc1 (stereo not given)
inhibition at 50 µM [1]: 28.2%
inhibition at 50 µM [3]: 26.4%
inhibition at 50 µM [4]: 25.8%
inhibition at 50 µM [5]: 10.4%

SMILES: CC(C)(C)NC(=O)C1c2cccc(c2)-c2ccc(cc2)OCc2cn(nn2)CCCOc2ccc(cc2)CC(=O)N1Cc1ccccc1 (stereo not given)
inhibition at 50 µM [1]: 33.1%
inhibition at 50 µM [3]: 67.9%
inhibition at 50 µM [4]: 5.5%
inhibition [5]: inactive

SMILES: CCCCCCCCCCCCNC(=O)C1c2cccc(c2)-c2ccc(cc2)OCc2cn(nn2)CCCOc2ccc(cc2)CC(=O)N1c1ccc(C(F)(F)F)cc1 (stereo not given)
inhibition at 50 µM [1]: 20.4%
inhibition at 50 µM [3]: 45.6%
inhibition at 50 µM [4]: 15.3%
inhibition at 50 µM [5]: 9.8%

IC50 [2]: 31.5 µM
SMILES: COc1cc([C@@H]2c3cc4c(cc3[C@@H](O[C@@H]3O[C@@H]5CO[C@@H](C)O[C@H]5[C@H](O)[C@H]3O)[C@H]3COC(=O)[C@H]23)OCO4)cc(OC)c1O [ETOPOSIDE]

SMILES: CCCCCCCCCCCCNC(=O)C1c2cccc(c2)-c2ccc(cc2)OCc2cn(nn2)CCOc2ccc(cc2)CC(=O)N1c1ccc(C(F)(F)F)cc1 (stereo not given)
inhibition at 50 µM [1]: 33.6%
inhibition at 50 µM [3]: 41.7%
inhibition at 50 µM [4]: 45.8%
inhibition at 50 µM [5]: 19.7%

IC50 [2]: 13.9 µM
SMILES: CCCCCCCCCCCCNC(=O)C1c2cccc(c2)-c2ccc(cc2)OCc2cn(nn2)CCOc2ccc(cc2)CC(=O)N1c1ccc(F)cc1 (stereo not given)
inhibition at 50 µM [1]: 35%
inhibition at 50 µM [3]: 82.4%
inhibition at 50 µM [4]: 68.3%
inhibition at 50 µM [5]: 93.1%

SMILES: O=C(NC1CCCCC1)C1c2cccc(c2)-c2ccc(cc2)OCc2cn(nn2)CCOc2ccc(cc2)CC(=O)N1c1ccc(C(F)(F)F)cc1 (stereo not given)
inhibition at 50 µM [1]: 37.7%
inhibition at 50 µM [3]: 45.8%
inhibition at 50 µM [4]: 46.9%
inhibition at 50 µM [5]: 37.1%

SMILES: CCCCCCCCCCCCNC(=O)C1c2cccc(c2)-c2ccc(cc2)OCc2cn(nn2)CCCCOc2ccc(cc2)CC(=O)N1c1ccc(C(F)(F)F)cc1 (stereo not given)
inhibition at 50 µM [1]: 16.6%
inhibition at 50 µM [3]: 42.9%
inhibition at 50 µM [4]: 36.4%
inhibition at 50 µM [5]: 52.8%
